≈ marks a conversion by molar mass, not a printed value.

As usually defined, the MIC is the smallest concentration in the dilution series that meets the test's criterion for growth inhibition.

In the experiment the test system is Mycobacterium tuberculosis. The experiment can be described thus: Antitubercular activity against Mycobacterium tuberculosis H37Rv after 6 weeks. It counts as functional.
As for `COc1cc(C2CC(c3ccccc3)=NN2C(C)=O)cc2nc(S)oc12` (stereo not given), the minimal inhibitory concentration (MIC) is 6.25 µg/mL (≈ 17 µM).

In turn, `COc1cc(C2CC(c3ccccc3Br)=NN2C(C)=O)cc2nc(N)oc12` (stereo not given) displayed an MIC of 12.5 µg/mL (≈ 29.1 µM).

`CC(=O)N1N=C(c2ccccc2Br)CC1c1cc(N)c(O)c(Cl)c1` (stereo not given) came in with an MIC of 12.5 µg/mL (≈ 30.6 µM).

Consider `CC(=O)N1N=C(c2ccccc2)CC1c1cc(Cl)c2oc(N)nc2c1` (stereo not given), for which the MIC was 25 µg/mL (≈ 70.5 µM).

For the compound `COc1cc(C2CC(c3ccccc3)=NN2C(C)=O)cc2nc(N)oc12` (stereo not given), 0.625 µg/mL (≈ 1.78 µM) was the least that counted as inhibitory (MIC).

On to `CC(=O)N1N=C(c2ccccc2)CC1c1cc(Cl)c2oc(S)nc2c1` (stereo not given), for which the MIC is 1.25 µg/mL (≈ 3.36 µM).

With `CC(=O)N1N=C(c2ccccc2Br)CC1c1cc(Cl)c2oc(S)nc2c1` (stereo not given), the MIC came out at 6.25 µg/mL (≈ 13.9 µM). This MIC lies about 5-fold higher than the previous one.

In the case of `COc1cc(C2CC(c3ccc(F)cc3)=NN2C(C)=O)cc(N)c1O` (stereo not given), the MIC was 12.5 µg/mL (≈ 36.4 µM).

Consider `CC(=O)N1N=C(c2ccccc2Br)CC1c1cc(Cl)c2oc(N)nc2c1` (stereo not given), for which the minimum inhibitory concentration (MIC) was found to be 3.25 µg/mL (≈ 7.49 µM).

Regarding `CC(=O)N1N=C(c2ccccc2)CC1c1ccc2oc(S)nc2c1` (stereo not given), inhibition of growth (MIC) required 25 µg/mL (≈ 74.1 µM).

`CC(=O)N1N=C(c2ccccc2Br)CC1c1ccc2oc(N)nc2c1` (stereo not given) registered a minimal inhibitory concentration (MIC) of 25 µg/mL (≈ 62.6 µM).

Compound `COc1cc(C2CC(c3ccccc3)=NN2C(C)=O)cc(N)c1O` (stereo not given) registered an MIC of 25 µg/mL (≈ 76.8 µM).

Regarding `COc1cc(C2CC(c3ccc(Cl)cc3Cl)=NN2C(C)=O)cc(N)c1O` (stereo not given), the minimum inhibitory concentration (MIC) was found to be 12.5 µg/mL (≈ 31.7 µM).

`COc1cc(C2CC(c3ccc(Cl)cc3Cl)=NN2C(C)=O)cc2nc(N)oc12` (stereo not given) showed an MIC of 12.5 µg/mL (≈ 29.8 µM).

In the case of `CC(=O)N1N=C(c2ccccc2)CC1c1ccc2oc(N)nc2c1` (stereo not given), the MIC is 25 µg/mL (≈ 78 µM).

Turning to `COc1cc(C2CC(c3ccc(F)cc3)=NN2C(C)=O)cc2nc(N)oc12` (stereo not given), the MIC stood at 6.25 µg/mL (≈ 17 µM).

`COc1cc(C2CC(c3ccc(Cl)cc3Cl)=NN2C(C)=O)cc2nc(S)oc12` (stereo not given) had a minimum inhibitory concentration (MIC) of 6.25 µg/mL (≈ 14.3 µM).

For the compound `CC(=O)N1N=C(c2ccccc2)CC1c1ccc(O)c(N)c1` (stereo not given), the MIC turned out to be 1.25 µg/mL (≈ 4.23 µM).

The compound `COc1cc(C2CC(c3ccccc3Br)=NN2C(C)=O)cc(N)c1O` (stereo not given) displayed a minimal inhibitory concentration (MIC) of 12.5 µg/mL (≈ 30.9 µM).

In turn, `CC(=O)N1N=C(c2ccccc2Br)CC1c1ccc2oc(S)nc2c1` (stereo not given) registered an MIC of 12.5 µg/mL (≈ 30 µM).

In the case of `CC(=O)N1N=C(c2ccccc2)CC1c1cc(N)c(O)c(Cl)c1` (stereo not given), the MIC stood at 3.25 µg/mL (≈ 9.85 µM).

`COc1cc(C2CC(c3ccc(F)cc3)=NN2C(C)=O)cc2nc(S)oc12` (stereo not given): the minimal inhibitory concentration (MIC) came to 12.5 µg/mL (≈ 32.4 µM). This MIC is about 3.8-fold higher than that of the compound before.

For `COc1cc(C2CC(c3ccccc3Br)=NN2C(C)=O)cc2nc(S)oc12` (stereo not given), the lowest concentration to inhibit growth (MIC) was 12.5 µg/mL (≈ 28 µM).

`CC(=O)N1N=C(c2ccccc2Br)CC1c1ccc(O)c(N)c1` (stereo not given) had an MIC of 0.625 µg/mL (≈ 1.67 µM).

For the compound `NNC(=O)c1ccncc1` [ISONIAZID], the MIC was 0.625 µg/mL (≈ 4.56 µM).

The record behind these values is ChEMBL document CHEMBL2424561, “Discovery of new antitubercular agents by combining pyrazoline and benzoxazole pharmacophores: design, synthesis and insights into the binding interactions” (2013).
